The values below come from patent US9862684B2, “Modulation of K2P channels” (The Regents of the University of California, priority 2013, dated 2018).

What all share (type): cell-based, Murine
For assay [1], the target named is T1, K2P2.1 (TREK-1) (Mus musculus, UniProt P97438).
T1 construct: expressed in transfected cells; host or cells: Xenopus oocytes (cRNA injection, pGEMHE/pMO)
T1 sequence (P97438 1-411 isoform P97438-2): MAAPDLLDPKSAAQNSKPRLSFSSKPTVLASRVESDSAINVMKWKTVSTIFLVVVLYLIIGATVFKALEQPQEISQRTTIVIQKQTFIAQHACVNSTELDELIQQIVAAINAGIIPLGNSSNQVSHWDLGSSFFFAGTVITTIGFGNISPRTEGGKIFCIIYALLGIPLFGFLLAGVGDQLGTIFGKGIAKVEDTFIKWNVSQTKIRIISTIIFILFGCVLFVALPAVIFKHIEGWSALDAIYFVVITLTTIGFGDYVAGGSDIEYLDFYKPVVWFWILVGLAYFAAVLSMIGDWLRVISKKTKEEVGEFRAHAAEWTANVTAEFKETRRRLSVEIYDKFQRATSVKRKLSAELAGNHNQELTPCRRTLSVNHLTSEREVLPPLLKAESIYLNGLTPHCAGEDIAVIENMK
Nature of the assay: Whole cell patch clamp of HEK-293T cells expressing K2P2.1 (TREK-1). As to the method:
Murine K2P channels were cloned into pGEMHE/pMO {Bagriantsev, 2011}, IRES-GFP (Invitrogen), or pYES2-MET25 (high copy 2μ, URA3) {Minor, 1999} for expression in oocytes, HEK-293T cells, and yeast, respectively, using standard molecular biology procedures, and verified by DNA sequencing.
(§1) Two-electrode voltage clamp recordings were performed from defolliculated stage V-VI Xenopus oocytes 24-48 hours after injection with 0.015-6.0 ng cRNA, using microelectrodes (0.3-3.0 MΩ) filled with 3M KCl. Data was acquired using the GeneClamp 500B (MDS Analytical Technologies) amplifier controlled by the pClamp software (Molecular Devices), and digitized at 1 kHz using Digidata 1332A (MDS Analytical Technologies). Recording solutions (mM): 2K (96 NaCl, 2 KCl, 1.8 CaCl2, 2 MgCl2), 90K (90 KCl, 8 NaCl, 1.8 CaCl2, 2 MgCl2), were buffered 5 mM HEPES pH 7.4. For K2P recordings, currents we elicited by a 1 second long ramp from −150 to +50 mV from a holding potential of −80 mV (2K), or −100 to +50 mV from a holding potential of 0 mV (90K). For KCNQ2 recordings, currents were elicited by a step protocol from −120 to 60 mV, in 20 mV increments, from a holding potential of −80 mV. Patch-clamp recordings from HEK-293T cells were performed using microelectrodes (2-3 MΩ) filled with 1M KCl. Data was acquired using the Axopatch 200B amplifier controlled by pClamp software, and digitized at 1 kHz using Digidata 1332A. Recording solutions (mM): intracellular (145 KCl, 5 EGTA, 3 MgCl2,) extracellular (150 NaCl, 5 KCl, 3 MgCl2, 1 CaCl2) were buffered with 5 mM HEPES pH 7.2 and 7.4, respectively. Currents were elicited by a 1 second long ramp from −150 to +50 mV from a holding potential of −80 mV. Data were fitted with a modified Hill's equation: I=Imin+(Imax−Imin)/(1+10^((Log EC50−Log [C])*H)), where Imax and Imin are maximal and minimal current values, respectively, EC50 is a half-maximal effective concentration of the compound, and H is the Hill coefficient.
(In general: The patch-clamp technique gives a direct electrical read-out from membranes.)

For assay [2], the target named is T1, K2P2.1 (TREK-1). Nature of the assay: Excised membrane patches (outside-out, inside-out) from HEK-293T cells expressing K2P2.1 (TREK-1). As to the method: FIG. 5 ML67-33 activates K2P2.1 (TREK-1) in excised membrane patches a, and b, exemplar I-V curves showing the effect of ML67-33 on K2P2.1 (TREK-1) in a, outside-out and b, inside-out excised patches from HEK-293T cells; currents were elicited by a voltage ramp from −100 to 50 mV from a holding potential of −40 mV. c, Exemplar channel responses to ML67-33 measured at 0 mV in the indicated configurations. Grey region indicates presence of 20 μM ML67-33. d, Times of half-maximal activation following ML67-33 application and recovery from activation (wash) following ML67-33 removal, measured in HEK-293T cells at 0 mV. Error bars: mean±s.e. n≧6, N≧2. ‘**’ indicates p≦0.01 and ‘N.S.’ indicates not significant (p≧0.05) as determined by t-test analysis.
as §1
To understand the mechanism of action of ML67-33, we examined how it affected K2P2.1 (TREK-1) expressed in two widely-used experimental systems, Xenopus oocytes and mammalian cells. […] Further, the effects of ML-67-33 were fast, occurring within seconds (half-maximal activation time, 4.1±0.5 s, mean±s.e., n=7, N=2) and were reversible upon washout (FIG. 4d). […] The times of half-maximal activation and return to baseline following compound washout (t1/2act and t1/2wash, respectively) in the outside-out configuration were indistinguishable from the same parameters measured in the whole-cell configuration (t1/2act:t1/2wash, mean±s.e. 4.1±0.5 s:3.9±0.5 s and 4.6±0.9 s:3.1±0.7 s for whole-cell and outside-out, respectively, FIGS. 5c and d). In stark contrast, both t1/2 values slowed substantially when the compound was applied to the inside-out configuration.

Assay [3] deals with T1, K2P2.1 (TREK-1). The assay can be described thus: Two-electrode voltage clamp of Xenopus oocytes expressing K2P2.1 (TREK-1). As to the method:
Two-electrode voltage clamp recordings were performed from defolliculated stage V-VI Xenopus oocytes 24-48 hours after injection with 0.015-6.0 ng cRNA, using microelectrodes (0.3-3.0 MΩ) filled with 3M KCl. […] Recording solutions (mM): 2K (96 NaCl, 2 KCl, 1.8 CaCl2, 2 MgCl2), 90K (90 KCl, 8 NaCl, 1.8 CaCl2, 2 MgCl2), were buffered 5 mM HEPES pH 7.4. For K2P recordings, currents we elicited by a 1 second long ramp from −150 to +50 mV from a holding potential of −80 mV (2K), or −100 to +50 mV from a holding potential of 0 mV (90K). For KCNQ2 recordings, currents were elicited by a step protocol from −120 to 60 mV, in 20 mV increments, from a holding potential of −80 mV. […] Currents were elicited by a 1 second long ramp from −150 to +50 mV from a holding potential of −80 mV.
A general note: In two-electrode clamp one electrode senses voltage and the other passes current.

Take `CC1(C)c2cc(Cl)ccc2N(CCc2nnn[nH]2)c2ccc(Cl)cc21` [ML67-33, 2,7-dichloro-9,9-dimethyl-10-[2-(1H-tetrazol-5-yl)ethyl]acridine]: the “Emax (fold)” value on K2P2.1 (TREK-1) [1] (HEK-293T cells, whole cell patch clamp, at 100 μM per FIG. 4 legend) stood at 11.4±1.1 fold; at K2P2.1 (TREK-1) [3] (Xenopus oocytes, fold over basal current, no concentration stated), 11.1 ± 0.4 fold. Further, the EC50 on K2P2.1 (TREK-1) [1] (HEK-293T cells, whole cell patch clamp, marked * in Table 1) was 9.7 ± 1.2 µM; on K2P2.1 (TREK-1) [3] (Xenopus oocytes, 2 mM [K+]o pH 7.4, data at 0 mV, normalized to basal activity, Hill fit, read-out: EC50) it was 36.3 ± 1.04 µM; on K2P2.1 (TREK-1) [3] (spans oocytes and HEK cells, read-out: concentration at which the compound acts (EC50 range)), 9.7 to 36.3 µM. Moreover, the “time of half-maximal activation (t1/2act)” value at K2P2.1 (TREK-1) [1] (whole-cell, HEK-293T, 0 mV) stood at 4.1 ± 0.5 s. In addition, the “time of return to baseline following washout (t1/2wash)” value on K2P2.1 (TREK-1) [1] (whole-cell, HEK-293T, 0 mV) came to 3.9 ± 0.5 s. Also, the t1/2act is 10.8 ± 1.3 s at K2P2.1 (TREK-1) [2] (inside-out patch) and 4.6 ± 0.9 s on K2P2.1 (TREK-1) [2] (outside-out patch). Further, the t1/2wash on K2P2.1 (TREK-1) [2] (inside-out patch) amounted to 22.0 ± 5.1 s; at K2P2.1 (TREK-1) [2] (outside-out patch), 3.1 ± 0.7 s. Moreover, the “effect on K2P2.1 (TREK-1) in excised patches (in words)” value at K2P2.1 (TREK-1) [2] (outside-out and inside-out configurations) is listed as “activated”. Besides, the “Emax (fold) at 100 μM” value at K2P2.1 (TREK-1) [3] (Xenopus oocytes, at 100 μM (FIG. 4, 7 legends), marked ** in Table 1, footnote not given) amounted to 11.1±0.4 fold. Besides, the “response of K2P2.1 (TREK-1) to ML67-33 with C-type gate stabilized (in words)” value at K2P2.1 (TREK-1) [3] (high extracellular potassium, 90 mM [K+]o) is “reduced the response”.
